This is an account of results in PMC5794198, “Inhibitors of Trypanosoma cruzi Sir2 related protein 1 as potential drugs against Chagas disease” (PLoS Neglected Tropical Diseases, 2018).

Entries after “also recorded” stand apart in the source; their conditions may differ. A value given as a limit tells only on which side of the number the result lay.

Series [1] has as its system T. cruzi amastigotes. The series can be described thus: High-content screening assay on intracellular T. cruzi amastigotes. The series is classed as cell-based, Trypanosoma cruzi. The conditions noted are these: Trypanosoma cruzi, C2C12, 72 h, Y strain in C2C12 host cells, 72 h; read-out: Anti-T. cruzi Activity Amastigotes (EC50 ± SD). How it is done:
(§1) For the evaluation of the activity against T. cruzi amastigotes, high-content screening (HCS) was designed. In summary, 100 μL of host C2C12 cells (ATCC) were seeded in clear bottom black 96-well plates at a density of 2.5 x 10^4 cells/mL (2.5 × 10^3 cells/well). After 24 hrs, 50 μL of Y strain tissue culture-derived trypomastigotes were used to infect the host cells at a density of 7.5 x 10^5/mL (3.75 x 10^4 parasites/well). The parasites were allowed to infect for a 24 hr period, after which compounds were added in a volume of 50 μL. […] After 72 hrs of compound incubation, the wells were fixed with 4% paraformaldehyde for 15 to 30 mins. The plates were then washed once with deionized water and stained with a solution of DAPI (3 μM) for 1 hour. Plates were imaged in an INCell 2000 (GE Healthcare) high-content analyser by taking 16 pictures per well at 20 X objective amplification. Images were analysed with INCell Developer software (GE Healthcare) using the segmentation of host cell nuclei and parasite kinetoplast DNA. The measurement output used was the average number of parasites per cell calculated by the ratio of host cell nuclei/parasite kinetoplast DNA.
In this assay, the compounds are incubated for 72 hours with cells previously infected with wild-type trypomastigotes for 24 hours. The readout was done by comparing the average number of amastigotes per cell that developed by the end of the incubation period. The quality of the assay was statistically evaluated by the calculation of the z-factor [75], that represents the reliability of the assay in distinguishing positive controls confidently from negative controls. Varying from 0 to 1, z-factor values higher than 0.5 are considered acceptable for drug screening. The z-factor obtained was 0.68, validating the use of the assay (S3B Fig).

Series [2] can be described thus: C2C12 host cell cytotoxicity (cell ratio) in HCS assay. The series is classed as cell-based, Mouse. Conditions: mouse, cell ratio, 72 h; read-out: C2C12 Cytotoxicity (CC50 ± SD). How it is done: as §1, with “After 24 hrs, 50 μL of Y strain tissue culture-derived trypomastigotes were used to infect the host cells at a density of 7.5 x 10^5/mL (3.75 x 10^4 parasites/well).” left out

In series [3] the test system is C2C12 cells. The series is described as above. In kind it is cell-based, Mouse. The conditions noted are these: for Selectivity Index: CC50 cell line (C2C12)/EC50 T. cruzi. On the procedure:
as §1, with “After 24 hrs, 50 μL of Y strain tissue culture-derived trypomastigotes were used to infect the host cells at a density of 7.5 x 10^5/mL (3.75 x 10^4 parasites/well).” left out

Series [4] concerns T. cruzi Y strain (Luc+). The series is described as follows: Mouse model of T. cruzi infection, bioluminescence imaging. The series is classed as in vivo, BALB/c mice. Conditions: 100 mg/kg/day per os, 4 days. On the procedure:
To evaluate BNIPSpd (9) efficacy in vivo, five- to six-week-old female BALB/c mice (Charles River) and infected with T. cruzi trypomastigotes expressing luciferase. Parasites were collected from the supernatants of a monolayer of Vero infected cells, washed and suspended in PBS-glucose 0.2%, and injected intraperitoneally (1 x 10^4 per mouse). After 7 days of infection, mice were treated with drugs for 4 consecutive days orally with (benznidazole in 20% Kolliphor HS 15) or intravenously with (BNIPSpd (9) in 10% DMSO) at a dose of 100 or 5 mg/kg/day, respectively. Infection and treatment efficiency were evaluated following subcutaneous injection of 2.1 mg of luciferin and through live imaging using an IVIS Lumina LT (Perkin Elmer). Images of the animals were analysed using the Living Image software (Perkin Elmer).
Supplementary file pntd.0006180.s006.tif: S5 Fig In vivo efficacy testing of BNIPSpd (9). A) Mice were infected with 10^4 Luc^+ trypomastigotes by intraperitoneal injection. […] In the lower panel, bioluminescence signal of whole mice represented in average radiance (photons/sec/cm^2/sr) quantified before and after treatment. […] B) Snapshot Pharmacokinetics of BNIPSpd (9) in BALB/c mice by quantification of BNIPSpd (9) in the blood of mice by UHPLC-MS/MS ESI+ at different time-points after administration of a 5 mg/kg dose by intravenous injection. […]

The target of series [5] is TcSir2rp1 (Trypanosoma cruzi, UniProt Q4DVL9). The series can be described thus: TcSir2rp1 NAD+-dependent deacetylase fluorimetric assay (CycLex kit). The series is classed as biochemical. Conditions: for Inhibition of NAD+-dependent deacetylase activity of TcSir2rp1 / inhibition at 10 µM: single dose 10 μM, 200 μM NAD+, 10 μM peptide. How it is done: The deacetylase activity was measured using the commercial SIRT1/Sir2 Deacetylase Fluorometric Assay Kit (CycLex,Japan) according to the manufacturer’s recommendations. Briefly, fluorescence emission after digestion of deacetylated substrates by a lysine specific endopeptidase was measured in a fluorometric plate reader (Synergy HT, BioTek) with excitation and emission wavelengths set at 340 and 440 nm, respectively, every 30 seconds for 1 hour. The slope of the linear part of the reaction was calculated and used as readout of enzyme activity. […]
TcSir2rp1, sequence (Q4DVL9 entry or part of it): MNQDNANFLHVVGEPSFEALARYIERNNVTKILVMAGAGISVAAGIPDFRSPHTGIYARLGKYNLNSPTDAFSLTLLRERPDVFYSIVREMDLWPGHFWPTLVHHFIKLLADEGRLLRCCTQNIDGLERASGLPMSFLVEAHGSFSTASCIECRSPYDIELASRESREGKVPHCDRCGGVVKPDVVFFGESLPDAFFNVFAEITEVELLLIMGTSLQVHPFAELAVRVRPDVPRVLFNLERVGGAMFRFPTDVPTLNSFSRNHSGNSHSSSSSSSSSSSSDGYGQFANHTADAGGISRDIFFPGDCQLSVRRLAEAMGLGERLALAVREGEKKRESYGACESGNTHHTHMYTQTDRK
A variety of the bisnaphthalimidopropyl (BNIPs) derivatives, as well as the newly synthetized derivatives were evaluated as potential TcSir2rp1 inhibitors. The enzymatic reactions were performed using a commercially available CycLex SIRT1/Sir2 deacetylase fluorimetric kit (CycLex Co. Ltd., Nagano, Japan) in the absence and presence of the various inhibitors, 200 μM NAD^+ and 10 μM of peptide substrate as previously described.
A variety of the bisnaphthalimidopropyl (BNIPs) derivatives, as well as the newly synthetized derivatives were evaluated as potential TcSir2rp1 inhibitors. The enzymatic reactions were performed using a commercially available CycLex SIRT1/Sir2 deacetylase fluorimetric kit (CycLex Co. Ltd., Nagano, Japan) in the absence and presence of the various inhibitors, 200 µM NAD^+ and 10 µM of peptide substrate as previously described.

Series [6] concerns T. cruzi epimastigotes, wild-type (WT). The series can be described thus: T. cruzi epimastigote resazurin viability assay, wild-type. The series is classed as cell-based, Trypanosoma cruzi. The conditions noted are these: CL-Brener, 64 h + 6 h resazurin; means ± SD (n = 4). How it is done:
T. cruzi epimastigotes were seeded at 1.25 x 10^6 cells/mL in a 96-well plate in the presence of varying concentrations of test compounds. Following a 64-hour incubation, 15 μL of a resazurin solution (Sigma-Aldrich; 1.1 mg/mL in PBS). […] Each assay was performed in at least triplicate in parallel to the known trypanocidal agent nifurtimox.

Series [7] has as its system T. cruzi epimastigotes overexpressing TcSir2rp1 (OE) with the pTcINDEX. The series can be described thus: microbe, parasite or virus in culture. In kind it is cell-based. The conditions noted are these: Trypanosoma cruzi, read-out: EC50 against T. cruzi epimastigotes OE. How it is done: For the generation of transgenic cell lines, 15 μg of the constructs were digested overnight (SpeI for the pTcINDEX construct; NotI for the knockout constructs), precipitated with sodium acetate / ethanol, and introduced into 1.5 x 10^7 epimastigote cells in the logarithmic phase of growth via transfection using an AMAXA Nucleofector II device (program V-33) with the Human T-cell nucleofector kit (Lonza). Parasites were suspended in fresh growth medium and incubated for 24-hrs to allow for the expression of drug selectable markers, prior to the addition of appropriate antibiotic (Blasticidin S (Thermo Fisher Scientific; 10 μg/mL); Hygromycin B (Formedium; 100 μg/mL); and Puromycin (Calbiochem; 5 μg/mL). Cells were then incubated for a further four- to six-weeks to allow for the selection of transgenic parasites and then genetically verified by PCR using ORF and drug selection primers.
The TcSir2rp1 open reading frame (TriTryp accession number TcCLB.508207.150) was amplified from CL-Brener genomic DNA using KOD polymerase (Novagen). The resulting PCR product encoding the full-length ORF was cloned directly into the T. cruzi expression vector, pTcINDEX [49], using NotI and BamHI restriction sites.
T. cruzi epimastigotes were seeded at 1.25 x 10^6 cells/mL in a 96-well plate in the presence of varying concentrations of test compounds. Following a 64-hour incubation, 15 μL of a resazurin solution (Sigma-Aldrich; 1.1 mg/mL in PBS). Following an additional 6-hr incubation, cell viability was determined by measuring the fluorescence of each culture with a BioTek FLX800 Fluorescence Microplate Reader (excitation and emission wavelengths of 540/535 nm and 590/610 nm, respectively) and associated Gen5 Reader Control 2.0 software. EC50 values were determined by nonlinear regression to a sigmoidal dose-response curve using GraFit software (Version 5.0, Erithacus Software). Each assay was performed in at least triplicate in parallel to the known trypanocidal agent nifurtimox.

The nature of series [8]: Solubility. In kind it is physicochemical. The conditions noted are these: limits the concentration tested.

Take `O=C(Cn1ccnc1[N+](=O)[O-])NCc1ccccc1` [Benznidazole, benznidazole, reference compound]: in series [1], the EC50 was 1230 ± 300 nM. Further, the CC50 at 72 h in series [2] was over 100000 nM. The “Selectivity Index” value in series [3] is reported as over 81.0. The “Reduction in the bioluminescence signal compared to vehicle” value in series [4] was found to be 700 fold.

Regarding `O=C1c2cccc3cccc(c23)C(=O)N1CCCNCCCCCNCCCN1C(=O)c2cccc3cccc(c23)C1=O` [Compound 2], in series [5] (50 μM), the inhibition at 50 µM worked out at 55 ± 4%. In series [5], the “Inhibition of NAD+-dependent deacetylase activity of TcSir2rp1” value was “statistically significant inhibition” and the inhibition at 10 µM was found to be 42 ± 13%. Further, the “EC50 against T. cruzi epimastigotes WT” value in series [6] is given as “just as potent as nifurtimox”. The EC50 in series [7] was found to be 7.94 ± 0.78 µM. Further, in series [3] (single dose 2.5 μM), the “Host cell toxicity in primary screening” value is “high cytotoxicity”.

With `O=C1c2cccc3cccc(c23)C(=O)N1CCCNCCCCCCNCCCN1C(=O)c2cccc3cccc(c23)C1=O` [Compound 3], in series [5], the inhibition at 20 µM is 34 ± 11%, the “Inhibition of NAD+-dependent deacetylase activity of TcSir2rp1” value is given as “statistically significant inhibition” and the inhibition at 10 µM was determined as 31 ± 8%. Also, in series [6], the “EC50 against T. cruzi epimastigotes WT” value is on record as “moderate activity”. In addition, the EC50 in series [7] was found to be 102 ± 9.9 µM. Also, the “Solubility in assay (qualitative)” value in series [8] was “low solubility; also recorded: poor solubility”.

In the case of `O=C1c2cccc3cccc(c23)C(=O)N1CCCNCCCCCCCCCNCCCN1C(=O)c2cccc3cccc(c23)C1=O` [Compound 6], the “EC50 against T. cruzi epimastigotes WT” value in series [6] was “moderate activity”. The EC50 turned out to be 113 ± 8.2 µM in series [7] and 1450 ± 370 nM in series [1]. In addition, in series [2], the CC50 at 72 h came out at 2350 ± 770 nM. The “Selectivity Index” value in series [3] is listed as 1.7.

Turning to `O=C1c2cccc3cccc(c23)C(=O)N1CCCNCCCCCCCCCCNCCCN1C(=O)c2cccc3cccc(c23)C1=O` [Compound 7], the “EC50 against T. cruzi epimastigotes WT” value in series [6] is reported as “just as potent as nifurtimox”. In addition, the EC50 in series [7] was 2.97 ± 0.6 µM.

For the compound `CC1CS(=O)(=O)CCN1/N=C/c1ccc([N+](=O)[O-])o1` (stereo not drawn) [Nifurtimox, nifurtimox, reference compound], the EC50 in series [7] was 2.24 ± 0.14 µM.
